Data reported in paper PMC10809370, “Dye-Decolorizing Peroxidase of Streptomyces coelicolor (ScDyPB) Exists as a Dynamic Mixture of Kinetically Different Oligomers” (ACS Omega, 2024).

Assays:
[1] = molecular target: T1, Dye-decolorizing peroxidase ScDyPB (Streptomyces coelicolor, UniProt Q9FBY9); assay: initial rates of MHQ oxidation to methylquinone at […] nm, purified enzyme; assay type: biochemical
T1 construct: gene SCO7193
T1 sequence (Q9FBY9 1-316): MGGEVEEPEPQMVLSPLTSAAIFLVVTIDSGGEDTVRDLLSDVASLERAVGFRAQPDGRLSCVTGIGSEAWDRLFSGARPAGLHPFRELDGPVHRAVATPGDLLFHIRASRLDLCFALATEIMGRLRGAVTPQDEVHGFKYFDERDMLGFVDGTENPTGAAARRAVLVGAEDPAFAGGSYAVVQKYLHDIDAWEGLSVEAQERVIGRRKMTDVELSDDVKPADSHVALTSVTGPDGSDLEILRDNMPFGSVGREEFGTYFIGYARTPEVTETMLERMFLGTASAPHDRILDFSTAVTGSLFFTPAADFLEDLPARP

[2] = molecular target: T1, Dye-decolorizing peroxidase ScDyPB; assay: biochemical
[3] = molecular target: T1, Dye-decolorizing peroxidase ScDyPB; assay: dye oxidation rate at […] nm, […] dye, […] H2O2; assay type: biochemical
[4] = molecular target: T1, Dye-decolorizing peroxidase ScDyPB; assay: dye oxidation rate at […] nm, […] dye, […] H2O2; assay type: biochemical; remark: listed apart in the source
[5] = substrate: OO; assay: purified protein; details: heme heme in its resting state
[6] = molecular target: the molecule itself; assay: SEC; Superdex 75 Increase 10/300 GL, 20 mM Tris-HCl, 0.1 M NaCl, pH 7.5; 100 uL of 18.1 uM ScDyPB injected; calibrated with standard proteins; apparent molecular weights

Cc1cc(O)ccc1O [MHQ, methylhydroquinone]
initial rates of MHQ oxidation to methylquinone at 251 nm, purified enzyme [1]: the rate of the oxidation of both ABTS and MHQ scaled linearly with the concentration of the ScDyPB in the cuvette

CCn1c(=NN=c2sc3cc(S(=O)(=O)O)ccc3n2CC)sc2cc(S(=O)(=O)O)ccc21 [ABTS, 2,2′-azino-di(3-ethyl-benzothiazoline-6-sulfonic acid)]
Ki [2]: 4.12 ± 0.36 µM

Nc1c(S(=O)(=O)O)cc(Nc2cccc(S(=O)(=O)CCOS(=O)(=O)O)c2)c2c1C(=O)c1ccccc1C2=O [RB19, reactive blue 19]
dye oxidation rate at 595 nm, 0.1 mM dye, 1.0 mM H2O2 [3]: 0.58 ± 0.02 s^–1

Nc1c(S(=O)(=O)O)cc(Nc2ccc(S(=O)(=O)O)c(Nc3nc(Cl)nc(Cl)n3)c2)c2c1C(=O)c1ccccc1C2=O [RB4, reactive blue 4]
dye oxidation rate at 610 nm, 0.1 mM dye, 1.0 mM H2O2 [4]: 0.66 ± 0.04 s^–1

B1: Dye-decolorizing peroxidase from S. coelicolor A3(2) (ScDyPB) (enzyme, Streptomyces coelicolor A3(2))
chain: T1 sequence (Q9FBY9 1-316)
notes: Dye-decolorizing peroxidase ScDyPB, Streptomyces coelicolor A3(2), UniProtKB Q9FBY9; molecular weight printed as 34 kDa; Heme protein, reconstituted with hemin; also called type B dye-decolorizing peroxidase of Streptomyces coelicolor; subfamily B DyP; source: E. coli BL21 (DE3), purified, reconstituted with hemin
Km [5]: 890 ± 60 µM
stoichiometry N [6]: 3
